# Measurements reported in the NIST ThermoML archive (doi:10.1021/je060271a).
# Numbers after ± are expanded uncertainties.
# Conditions: 303.15 K, Liquid, Vibrating tube method
compound,measurement,setting,value
CCCCC(=O)OCC(COC(=O)CCCC)(COC(=O)CCCC)COC(=O)CCCC [pentaerythritol tetrapentanoate],mass density,1387.7 kPa,1011.7 ± 1.2 kg/m3
same,mass density,1391.5 kPa,1011.7 ± 1.2 kg/m3
same,mass density,1395 kPa,1011.6 ± 1.2 kg/m3
same,mass density,1398.3 kPa,1011.8 ± 1.2 kg/m3
same,mass density,1401.8 kPa,1011.7 ± 1.2 kg/m3
same,mass density,1405.8 kPa,1011.7 ± 1.2 kg/m3
same,mass density,1409.2 kPa,1011.8 ± 1.2 kg/m3
same,mass density,1413.1 kPa,1011.7 ± 1.2 kg/m3
same,mass density,1416.4 kPa,1011.8 ± 1.2 kg/m3
same,mass density,1419.7 kPa,1011.8 ± 1.2 kg/m3
same,mass density,1423.1 kPa,1011.7 ± 1.2 kg/m3
same,mass density,1427 kPa,1011.8 ± 1.2 kg/m3
same,mass density,1430.8 kPa,1011.8 ± 1.2 kg/m3
same,mass density,1434.2 kPa,1011.9 ± 1.2 kg/m3
same,mass density,1437.9 kPa,1011.6 ± 1.2 kg/m3
same,mass density,1441.9 kPa,1011.8 ± 1.2 kg/m3
same,mass density,1445.5 kPa,1011.7 ± 1.2 kg/m3
same,mass density,1449 kPa,1011.8 ± 1.2 kg/m3
same,mass density,1453.3 kPa,1011.8 ± 1.2 kg/m3
same,mass density,1456.6 kPa,1011.8 ± 1.2 kg/m3
same,mass density,1460.5 kPa,1011.7 ± 1.2 kg/m3
same,mass density,1464.6 kPa,1011.9 ± 1.2 kg/m3
same,mass density,1467.9 kPa,1011.8 ± 1.2 kg/m3
same,mass density,1471.8 kPa,1011.8 ± 1.2 kg/m3
same,mass density,1475.9 kPa,1011.8 ± 1.2 kg/m3
same,mass density,1479.9 kPa,1011.8 ± 1.2 kg/m3
same,mass density,1483.5 kPa,1011.8 ± 1.2 kg/m3
same,mass density,1487 kPa,1011.7 ± 1.2 kg/m3
same,mass density,1491.7 kPa,1011.8 ± 1.2 kg/m3
same,mass density,1495.5 kPa,1011.9 ± 1.2 kg/m3
same,mass density,1499.2 kPa,1011.8 ± 1.2 kg/m3
same,mass density,1503.7 kPa,1011.9 ± 1.2 kg/m3
same,mass density,1507.5 kPa,1011.7 ± 1.2 kg/m3
same,mass density,1511.2 kPa,1011.8 ± 1.2 kg/m3
same,mass density,1515 kPa,1011.7 ± 1.2 kg/m3
same,mass density,1519.8 kPa,1011.7 ± 1.2 kg/m3
same,mass density,1523.7 kPa,1011.8 ± 1.2 kg/m3
same,mass density,1527.3 kPa,1011.8 ± 1.2 kg/m3
same,mass density,1532.2 kPa,1011.8 ± 1.2 kg/m3
same,mass density,1536 kPa,1011.7 ± 1.2 kg/m3
same,mass density,1540 kPa,1011.8 ± 1.2 kg/m3
same,mass density,1544.5 kPa,1011.8 ± 1.2 kg/m3
same,mass density,1548.8 kPa,1011.7 ± 1.2 kg/m3
same,mass density,1552.7 kPa,1011.8 ± 1.2 kg/m3
same,mass density,1556.3 kPa,1011.9 ± 1.2 kg/m3
same,mass density,1561.3 kPa,1011.9 ± 1.2 kg/m3
same,mass density,1565.3 kPa,1011.8 ± 1.2 kg/m3
same,mass density,1569.5 kPa,1011.8 ± 1.2 kg/m3
same,mass density,1573.5 kPa,1011.9 ± 1.2 kg/m3
same,mass density,1577.5 kPa,1011.9 ± 1.2 kg/m3
same,mass density,1581.8 kPa,1011.9 ± 1.2 kg/m3
same,mass density,1585.8 kPa,1011.8 ± 1.2 kg/m3
same,mass density,1590.8 kPa,1011.9 ± 1.2 kg/m3
same,mass density,1595 kPa,1011.8 ± 1.2 kg/m3
same,mass density,1599 kPa,1011.9 ± 1.2 kg/m3
same,mass density,1604.2 kPa,1011.9 ± 1.2 kg/m3
same,mass density,1608.2 kPa,1011.9 ± 1.2 kg/m3
same,mass density,1612.5 kPa,1011.9 ± 1.2 kg/m3
same,mass density,1617.8 kPa,1012 ± 1.2 kg/m3
same,mass density,1621.9 kPa,1011.9 ± 1.2 kg/m3
same,mass density,1626.6 kPa,1011.9 ± 1.2 kg/m3
same,mass density,1630.8 kPa,1011.8 ± 1.2 kg/m3
same,mass density,1635 kPa,1011.9 ± 1.2 kg/m3
same,mass density,1640 kPa,1012 ± 1.2 kg/m3
same,mass density,1644.2 kPa,1012 ± 1.2 kg/m3
same,mass density,1648.7 kPa,1011.8 ± 1.2 kg/m3
same,mass density,1653.9 kPa,1012.1 ± 1.2 kg/m3
same,mass density,1658.9 kPa,1011.8 ± 1.2 kg/m3
same,mass density,1663.4 kPa,1011.9 ± 1.2 kg/m3
same,mass density,1668.6 kPa,1011.9 ± 1.2 kg/m3
same,mass density,1673.2 kPa,1011.8 ± 1.2 kg/m3
same,mass density,1677.7 kPa,1011.8 ± 1.2 kg/m3
same,mass density,1683.2 kPa,1011.9 ± 1.2 kg/m3
same,mass density,1687.7 kPa,1012.1 ± 1.2 kg/m3
same,mass density,1692.6 kPa,1012 ± 1.2 kg/m3
same,mass density,1697.3 kPa,1011.9 ± 1.2 kg/m3
same,mass density,1703 kPa,1011.9 ± 1.2 kg/m3
same,mass density,1707.7 kPa,1012 ± 1.2 kg/m3
same,mass density,1712 kPa,1011.9 ± 1.2 kg/m3
same,mass density,1717.8 kPa,1011.9 ± 1.2 kg/m3
same,mass density,1722.5 kPa,1011.9 ± 1.2 kg/m3
same,mass density,1727.3 kPa,1012 ± 1.2 kg/m3
same,mass density,1732.9 kPa,1011.9 ± 1.2 kg/m3
same,mass density,1737.7 kPa,1012.1 ± 1.2 kg/m3
same,mass density,1742.9 kPa,1012.1 ± 1.2 kg/m3
same,mass density,1747.8 kPa,1012 ± 1.2 kg/m3
same,mass density,1753.7 kPa,1011.9 ± 1.2 kg/m3
same,mass density,1758.4 kPa,1012 ± 1.2 kg/m3
same,mass density,1763.8 kPa,1012 ± 1.2 kg/m3
same,mass density,1768.6 kPa,1012 ± 1.2 kg/m3
same,mass density,1774.7 kPa,1011.9 ± 1.2 kg/m3
same,mass density,1779.9 kPa,1012.1 ± 1.2 kg/m3
same,mass density,1784.9 kPa,1012 ± 1.2 kg/m3
same,mass density,1791 kPa,1011.9 ± 1.2 kg/m3
same,mass density,1796 kPa,1012 ± 1.2 kg/m3
same,mass density,1800.9 kPa,1012.1 ± 1.2 kg/m3
same,mass density,1807.3 kPa,1012 ± 1.2 kg/m3
same,mass density,1812.5 kPa,1012 ± 1.2 kg/m3
same,mass density,1817.6 kPa,1012.1 ± 1.2 kg/m3
same,mass density,1824 kPa,1011.9 ± 1.2 kg/m3
same,mass density,1829.5 kPa,1012.1 ± 1.2 kg/m3
same,mass density,1834.9 kPa,1012 ± 1.2 kg/m3
same,mass density,1840.1 kPa,1012 ± 1.2 kg/m3
same,mass density,1846.6 kPa,1012 ± 1.2 kg/m3
same,mass density,1852.1 kPa,1012 ± 1.2 kg/m3
same,mass density,1857.5 kPa,1012 ± 1.2 kg/m3
same,mass density,1862.9 kPa,1012 ± 1.2 kg/m3
same,mass density,1869.5 kPa,1012.1 ± 1.2 kg/m3
same,mass density,1874.8 kPa,1012.1 ± 1.2 kg/m3
same,mass density,1881.8 kPa,1012 ± 1.2 kg/m3
same,mass density,1887 kPa,1012.1 ± 1.2 kg/m3
same,mass density,1892.9 kPa,1012 ± 1.2 kg/m3
same,mass density,1898.6 kPa,1012.1 ± 1.2 kg/m3
same,mass density,1904.4 kPa,1012 ± 1.2 kg/m3
same,mass density,1911.3 kPa,1012.1 ± 1.2 kg/m3
same,mass density,1916.8 kPa,1012.1 ± 1.2 kg/m3
same,mass density,1923.1 kPa,1012.1 ± 1.2 kg/m3
same,mass density,1930 kPa,1012 ± 1.2 kg/m3
same,mass density,1935.6 kPa,1012.1 ± 1.2 kg/m3
same,mass density,1941.3 kPa,1011.9 ± 1.2 kg/m3
same,mass density,1947.2 kPa,1012.1 ± 1.2 kg/m3
same,mass density,1954.3 kPa,1012 ± 1.2 kg/m3
same,mass density,1960.6 kPa,1012 ± 1.2 kg/m3
same,mass density,1966.7 kPa,1012.1 ± 1.2 kg/m3
same,mass density,1972.9 kPa,1012.1 ± 1.2 kg/m3
same,mass density,1980.4 kPa,1012.1 ± 1.2 kg/m3
same,mass density,1986.3 kPa,1012.1 ± 1.2 kg/m3
same,mass density,1992.3 kPa,1012.1 ± 1.2 kg/m3
same,mass density,1999.8 kPa,1012.1 ± 1.2 kg/m3
same,mass density,2006.4 kPa,1012.1 ± 1.2 kg/m3
same,mass density,2012.5 kPa,1012.1 ± 1.2 kg/m3
same,mass density,2018.9 kPa,1012.1 ± 1.2 kg/m3
same,mass density,2026.4 kPa,1012.1 ± 1.2 kg/m3
same,mass density,2033.5 kPa,1012.1 ± 1.2 kg/m3
same,mass density,2039.7 kPa,1012.1 ± 1.2 kg/m3
same,mass density,2046.1 kPa,1012.1 ± 1.2 kg/m3
same,mass density,2053.9 kPa,1012.3 ± 1.2 kg/m3
same,mass density,2060.5 kPa,1012.1 ± 1.2 kg/m3
same,mass density,2068.3 kPa,1012.2 ± 1.2 kg/m3
same,mass density,2074.9 kPa,1012.1 ± 1.2 kg/m3
same,mass density,2081.9 kPa,1012.2 ± 1.2 kg/m3
same,mass density,2090 kPa,1012.3 ± 1.2 kg/m3
same,mass density,2096.8 kPa,1012.1 ± 1.2 kg/m3
same,mass density,2103.5 kPa,1012.2 ± 1.2 kg/m3
same,mass density,2109.8 kPa,1012.1 ± 1.2 kg/m3
same,mass density,2118.5 kPa,1012.2 ± 1.2 kg/m3
same,mass density,2125.2 kPa,1012.1 ± 1.2 kg/m3
same,mass density,2132.5 kPa,1012.3 ± 1.2 kg/m3
same,mass density,2140.9 kPa,1012.4 ± 1.2 kg/m3
same,mass density,2147.8 kPa,1012.2 ± 1.2 kg/m3
same,mass density,2155.4 kPa,1012.3 ± 1.2 kg/m3
same,mass density,2162.7 kPa,1012.2 ± 1.2 kg/m3
same,mass density,2170 kPa,1012.3 ± 1.2 kg/m3
same,mass density,2178.5 kPa,1012.3 ± 1.2 kg/m3
same,mass density,2185.3 kPa,1012.3 ± 1.2 kg/m3
same,mass density,2192.6 kPa,1012.2 ± 1.2 kg/m3
same,mass density,2201.3 kPa,1012.3 ± 1.2 kg/m3
same,mass density,2208.7 kPa,1012.3 ± 1.2 kg/m3
same,mass density,2216.2 kPa,1012.1 ± 1.2 kg/m3
same,mass density,2223.6 kPa,1012.2 ± 1.2 kg/m3
